Experimental data reported in patent US10253027B2, “Aryl lactam kinase inhibitors” (Bristol-Myers Squibb Company, priority 2013, dated 2019).

The compounds below were run against T1, GST-Xa-hAAK1 (Homo sapiens, UniProt Q2M2I8) (assay: AAK1 Kinase Assay). Conditions: IC50 (nM), ATP 22 μM; 3 hours at room temperature; Caliper LabChip 3000.
T1 construct: made in house
T1 sequence (Q2M2I8 whole entry): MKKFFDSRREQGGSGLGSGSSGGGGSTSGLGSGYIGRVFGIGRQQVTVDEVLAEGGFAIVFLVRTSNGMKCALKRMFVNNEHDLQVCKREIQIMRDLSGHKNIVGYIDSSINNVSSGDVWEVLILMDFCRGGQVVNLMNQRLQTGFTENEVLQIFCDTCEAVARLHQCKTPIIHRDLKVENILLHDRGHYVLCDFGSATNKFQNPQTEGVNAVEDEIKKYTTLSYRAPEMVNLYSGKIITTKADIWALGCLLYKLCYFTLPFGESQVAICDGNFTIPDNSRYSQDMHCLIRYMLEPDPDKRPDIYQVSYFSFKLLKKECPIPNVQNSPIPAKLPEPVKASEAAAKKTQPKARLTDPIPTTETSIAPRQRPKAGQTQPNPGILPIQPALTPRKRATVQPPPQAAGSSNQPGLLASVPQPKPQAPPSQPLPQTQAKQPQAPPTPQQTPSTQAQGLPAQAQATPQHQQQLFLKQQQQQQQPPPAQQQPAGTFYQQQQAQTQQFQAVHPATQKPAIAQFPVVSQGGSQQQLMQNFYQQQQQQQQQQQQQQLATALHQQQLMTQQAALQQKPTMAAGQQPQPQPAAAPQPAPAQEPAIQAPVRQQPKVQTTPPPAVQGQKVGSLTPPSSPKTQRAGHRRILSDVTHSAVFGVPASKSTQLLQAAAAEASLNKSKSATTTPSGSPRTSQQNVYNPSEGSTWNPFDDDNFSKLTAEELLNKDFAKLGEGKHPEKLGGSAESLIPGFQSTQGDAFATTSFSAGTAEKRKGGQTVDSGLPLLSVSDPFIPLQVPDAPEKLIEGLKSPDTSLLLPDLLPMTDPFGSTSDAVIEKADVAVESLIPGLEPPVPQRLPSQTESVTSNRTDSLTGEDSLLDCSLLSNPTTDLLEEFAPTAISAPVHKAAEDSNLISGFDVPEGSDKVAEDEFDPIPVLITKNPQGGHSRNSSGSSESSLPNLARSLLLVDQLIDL
Type: biochemical
Procedure: The assays were performed in U-bottom 384-well plates. […] The reactions were initiated by the combination of bacterially expressed, GST-Xa-hAAK1 with substrates and test compounds. The reactions were incubated at room temperature for 3 hours and terminated by adding 60 μl of 35 mM EDTA buffer to each sample. The reactions were analyzed on the Caliper LabChip 3000 (Caliper, Hopkinton, Mass.) by electrophoretic separation of the fluorescent substrate and phosphorylated product. […] Compounds were dissolved at 10 mM in dimethylsulfoxide (DMSO) and evaluated at eleven concentrations. IC50 values were derived by non-linear regression analysis.
`COc1cc(NC(=O)[C@H](N)CC(C)C)ccc1-c1cnco1` [Example 1, (R)-2-Amino-N-(3-methoxy-4-(oxazol-5-yl)phenyl)-4-methylpentanamide] gave an IC50 of 36 nM.
`CC(C)C[C@@H](N)C(=O)Nc1ccc(-c2cnco2)c(OC(F)F)c1` [Example 18, (R)-2-Amino-N-(3-(difluoromethoxy)-4-(oxazol-5-yl)phenyl)-4-methylpentanamide] showed an IC50 of 35 nM.
Work on `COc1cc(NC(=O)[C@H](N)[C@H](C)O)ccc1-c1cnco1` [Example 77, (2R,3S)-2-Amino-3-hydroxy-N-(3-methoxy-4-(oxazol-5-yl)phenyl)butanamide] yielded an IC50 of 810 nM.
Compound `COc1cc(NC(=O)[C@H]2C[C@H](OC)CN2)ccc1-c1cnco1` [Example 78, (2R,4S)-4-Methoxy-N-(3-methoxy-4-(oxazol-5-yl)phenyl)pyrrolidine-2-carboxamide] has an IC50 of 2900 nM.
Compound `COc1cc(NC(=O)C[C@@H](N)C(C)C)ccc1-c1cnco1` [Example 79, (R)-3-Amino-N-(3-methoxy-4-(oxazol-5-yl)phenyl)-4-methylpentanamide] has an IC50 of 130 nM.
For `COc1cc(NC(=O)C2CCCCN2C(=O)C(C)C)ccc1-c1cnco1` (centres unmarked) [Example 80, 1-Isobutyryl-N-(3-methoxy-4-(oxazol-5-yl)phenyl)piperidine-2-carboxamide], the IC50 was 630 nM.
`COc1cc(NC(=O)[C@@H]2CCCN2C(C)C)ccc1-c1cnco1` [Example 81, (S)-1-Isopropyl-N-(3-methoxy-4-(oxazol-5-yl)phenyl)pyrrolidine-2-carboxamide] gave an IC50 of 510 nM.
For `COc1cc(NC(=O)[C@@H]2CCCN2C(=O)C(C)C)ccc1-c1cnco1` [Example 82, (S)-1-Isobutyryl-N-(3-methoxy-4-(oxazol-5-yl)phenyl)pyrrolidine-2-carboxamide], the IC50 was 1800 nM.
In the case of `COc1cc(NC(=O)C2CCCCN2C(C)C)ccc1-c1cnco1` (centres unmarked) [Example 83, 1-Isopropyl-N-(3-methoxy-4-(oxazol-5-yl)phenyl)piperidine-2-carboxamide], the IC50 is reported as 360 nM.
`COc1cc(NC(=O)C(N)CC(C)(C)F)ccc1-c1cnco1` (centres unmarked) [Example 84, 2-Amino-4-fluoro-N-(3-methoxy-4-(oxazol-5-yl)phenyl)-4-methylpentanamide] showed an IC50 of 240 nM.
With `COc1cc(NC(=O)C2NCCCC2C(C)C)ccc1-c1cnco1` (centres unmarked) [Example 85, 3-Isopropyl-N-(3-methoxy-4-(oxazol-5-yl)phenyl)piperidine-2-carboxamide] the IC50 was 8 nM.
Compound `COc1cc(NC(=O)C2CNCCN2C(C)C)ccc1-c1cnco1` (centres unmarked) [Example 86, 1-Isopropyl-N-(3-methoxy-4-(oxazol-5-yl)phenyl)piperazine-2-carboxamide] has an IC50 of 52 nM.
For `COc1cc(NC(=O)[C@@H]2NCCC[C@@H]2C(C)C)ccc1-c1cnco1` [Example 88, (2R,3R)-3-Isopropyl-N-(3-methoxy-4-(oxazol-5-yl)phenyl)piperidine-2-carboxamide], the IC50 was 8 nM.
Work on `COc1cc(NC(=O)[C@H]2C[C@H](F)CN2)ccc1-c1cnco1` [Example 89, (2R,4S)-4-Fluoro-N-(3-methoxy-4-(oxazol-5-yl)phenyl)pyrrolidine-2-carboxamide] yielded an IC50 of 2000 nM.
`COc1cc(NC(=O)[C@H]2C[C@@H](F)CN2)ccc1-c1cnco1` [Example 90, (2R,4R)-4-Fluoro-N-(3-methoxy-4-(oxazol-5-yl)phenyl)pyrrolidine-2-carboxamide] showed an IC50 of 1100 nM.
With `COc1cc(NC(=O)[C@H](N)C(C)C)c(F)cc1-c1cnco1` [Example 96, (R)-2-Amino-N-(2-fluoro-5-methoxy-4-(oxazol-5-yl)phenyl)-3-methylbutanamide] the IC50 was 780 nM.
Compound `COc1cc(NC(=O)[C@H](N)CC(C)C)c(F)cc1-c1cnco1` [Example 98, (R)-2-Amino-N-(2-fluoro-5-methoxy-4-(oxazol-5-yl)phenyl)-4-methylpentanamide] has an IC50 of 1120 nM.
`COc1cc(NC(=O)[C@@H](N)CC(C)C)c(F)cc1-c1cnco1` [Example 99, (S)-2-Amino-N-(2-fluoro-5-methoxy-4-(oxazol-5-yl)phenyl)-4-methylpentanamide] was tested, and the IC50 was 780 nM.
`COc1cc(NC(=O)[C@H](N)C2CCCC2)c(F)cc1-c1cnco1` [Example 100, (R)-2-Amino-2-cyclopentyl-N-(2-fluoro-5-methoxy-4-(oxazol-5-yl)phenyl)acetamide] showed an IC50 of 530 nM.
For `COc1cc(NC(=O)[C@H](N)CC(C)C)c(C#N)cc1-c1cnco1` [Example 101, (R)-2-Amino-N-(2-cyano-5-methoxy-4-(oxazol-5-yl)phenyl)-4-methylpentanamide], the IC50 was 25 nM.
In the case of `COc1cc(NC(=O)[C@H](N)CC(C)C)c(-c2nn[nH]n2)cc1-c1cnco1` [Example 102, (R)-2-Amino-N-(5-methoxy-4-(oxazol-5-yl)-2-(2H-tetrazol-5-yl)phenyl)-4-methylpentanamide], the IC50 is reported as 6 nM.
`COc1cc(NC(=O)[C@H](N)CC(C)C)c(-c2nncs2)cc1-c1cnco1` [Example 103] gave an IC50 of 360 nM.
Work on `COc1cc(NC(=O)[C@H](N)CC(C)C)c(-c2cnco2)cc1-c1cnco1` [Example 104, (R)-2-Amino-N-(5-methoxy-2,4-bis(oxazol-5-yl)phenyl)-4-methylpentanamide] yielded an IC50 of 760 nM.
In the case of `CC(C)C[C@@H](N)C(=O)Nc1cc(F)c(-c2cnco2)cc1F` [Example 105, (R)-2-Amino-N-(2,5-difluoro-4-(oxazol-5-yl)phenyl)-4-methylpentanamide], the IC50 is reported as 620 nM.
`CC(C)C[C@@H](N)C(=O)Nc1ccc(-c2cnco2)c(OC(F)(F)F)c1` [Example 106, (R)-2-Amino-4-methyl-N-(4-(oxazol-5-yl)-3-(trifluoromethoxy)phenyl)pentanamide] showed an IC50 of 160 nM.
`COc1cc(-c2cnco2)c(F)cc1NC(=O)[C@H](N)CC(C)C` [Example 107, (R)-2-Amino-N-(5-fluoro-2-methoxy-4-(oxazol-5-yl)phenyl)-4-methylpentanamide] showed an IC50 of 84 nM.
For `CC(C)C[C@@H](N)C(=O)Nc1ccc(-c2cnco2)c(C#N)c1` [Example 108, (R)-2-Amino-N-(3-cyano-4-(oxazol-5-yl)phenyl)-4-methylpentanamide], the IC50 was 47 nM.
`COc1cc(NC(=O)[C@H](N)CC(C)C)ccc1-c1cnc[nH]1` [Example 109, (R)—N-(4-(1H-Imidazol-5-yl)-3-methoxyphenyl)-2-amino-4-methylpentanamide] showed an IC50 of 790 nM.
For `CC(C)C[C@@H](N)C(=O)Nc1ccc(-c2ccncc2)cc1C(F)(F)F` [Example 111, (R)-2-Amino-4-methyl-N-(4-(pyridin-4-yl)-2-(trifluoromethyl)phenyl)pentanamide], the IC50 was 300 nM.
`CC(C)C[C@@H](N)C(=O)Nc1ccc(-c2ccncc2)cc1-c1cn[nH]c1` [Example 112, (R)—N-(2-(1H-pyrazol-4-yl)-4-(pyridin-4-yl)phenyl)-2-amino-4-methylpentanamide] showed an IC50 of 1340 nM.
Work on `CC(C)C[C@@H](N)C(=O)Nc1ccc(-c2ccncc2)cc1-c1ccsc1` [Example 113, (R)-2-Amino-4-methyl-N-(4-(pyridin-4-yl)-2-(thiophen-3-yl)phenyl)pentanamide] yielded an IC50 of 500 nM.
In the case of `CC(C)C[C@@H](N)C(=O)Nc1ccc(-c2ccncc2)cc1C#N` [Example 114, (R)-2-Amino-N-(2-cyano-4-(pyridin-4-yl)phenyl)-4-methylpentanamide], the IC50 is reported as 75 nM.
In the case of `CC(C)C[C@@H](N)C(=O)Nc1ccc(-c2ccncc2)cc1-c1nn[nH]n1` [Example 115, (R)-2-Amino-4-methyl-N-(4-(pyridin-4-yl)-2-(2H-tetrazol-5-yl)phenyl)pentanamide], the IC50 is reported as 28 nM.
`CC(C)C[C@@H](N)C(=O)Nc1ccc(-c2ccncc2)cc1` [Example 116, (R)-2-Amino-4-methyl-N-(4-(pyridin-4-yl)phenyl)pentanamide] showed an IC50 of 25 nM.
`COc1cc(NC(=O)[C@H](N)CC(C)C)ccc1-c1ccncn1` [Example 117, (R)-2-Amino-N-(3-methoxy-4-(pyrimidin-4-yl)phenyl)-4-methylpentanamide] showed an IC50 of 460 nM.
`CC(=O)Nc1cc(-c2ccc(NC(=O)[C@H](N)CC(C)C)cc2)ccn1` [Example 118, (R)—N-(4-(2-Acetamidopyridin-4-yl)phenyl)-2-amino-4-methylpentanamide] gave an IC50 of 6 nM.

Each compound was assayed on mice (assay: formalin paw test (paw flinching, pain response)). Conditions: 50 mg/kg sc; % response relative to gabapentin 200 mg/kg (=100%); compound given 30 minutes prior to formalin.
Type: in vivo, mouse
Procedure: AAK1 homozygous (−/−) and their wild-type (+/+) littermates were tested using the formalin paw test in order to assess their acute and tonic nociceptive responses. For these tests, Automatic Nociception Analyzers (purchased from the Ozaki lab at University of California, San Diego) were used. A metal band was placed around the left hind paw of each mouse 30 minutes prior to testing. After the 30-minute acclimation period, 20 μl of 5% formalin is subcutaneously injected in the dorsal surface of the left hind paw. Mice were individually housed in cylindrical chambers for 45 minutes. Fresh 5% formalin solution was prepared by diluting formaldehyde (Formalde-fresh 20%, Fisher Scientific, Fair Lawn, N.J.) with distilled water. Investigatory compounds were administered 30 minutes prior to formalin injection.
A computer recorded flinches per minute, total flinches for phase I (acute phase=first 8 minutes), and total flinches for phase II (tonic phase=time between minutes 20-40) through an electromagnetic field. See Yaksh T L, Ozaki G, McCumber D, Rathbun M, Svensson C, Malkmus S, Yaksh M C. An automated flinch detecting system for use in the formalin nociceptive bioassay. J Appl Physiol., 2001; 90:2386-402. Phase 1 and phase 2 data were obtained using homozygous (−/−) mice females (n=16), wild-type females (n=15), homozygous (−/−) mice males (n=9), and wild-type males (n=18).
The same test was used to confirm that the administration of an AAK1 inhibitor can also affect pain response.
A compound of the disclosure was tested in this assay at different doses. Gabapentin and pregabalin were used as positive controls. Results are shown below in Table 3, wherein the effect of gabapentin at 200 mg/kg is considered a 100% response, the % response for the other compounds is relative to the 200 mg/kg dose of gabapentin, “sc” means subcutaneous administration; “po” means oral administration.
`NCC1(CC(=O)O)CCCCC1` [Gabapentin] gave a Response of 60%.
Work on `CC(C)C[C@H](CN)CC(=O)O` [Pregabalin, pregabalin] yielded a Response of 90%.

Same assay, conditions: 60 mg/kg sc; % response relative to gabapentin 200 mg/kg (=100%); compound given 30 minutes prior to formalin
`COc1cc(NC(=O)[C@H](N)CC(C)C)ccc1-c1cnco1` [Example 1, (R)-2-Amino-N-(3-methoxy-4-(oxazol-5-yl)phenyl)-4-methylpentanamide] showed a Response of 90%.
In the case of `CC(C)C[C@@H](N)C(=O)Nc1ccc(-c2cnco2)c(OC(F)F)c1` [Example 18, (R)-2-Amino-N-(3-(difluoromethoxy)-4-(oxazol-5-yl)phenyl)-4-methylpentanamide], the Response is reported as 100%.

Same assay, conditions: 200 mg/kg sc; gabapentin at 200 mg/kg is considered a 100% response
With `NCC1(CC(=O)O)CCCCC1` [Gabapentin] the Response was 100%.
